Results: PubChem BioAssay (NCI)
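Growth conditions: 96-well plates. Treatment: test compound, 48 hours, 5 concentrations. Analysis: linear interpolation between bracketing concentrations; unreached endpoints set to highest concentration. GI50 is the concentration that inhibits growth by half. The concentration for full growth arrest is given as TGI.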

Key:
Test in all cases: growth of human tumour cells (NCI), 48 h
[1] = system: MOLT-4 leukemia
[2] = system: DU-145 prostate
[3] = system: A549 NSCLC
[4] = system: MALME-3M melanoma
[5] = system: HOP-62 NSCLC
[6] = system: RPMI-8226 leukemia
[7] = system: OVCAR-5 ovarian
[8] = system: UO-31 renal
[9] = system: NCI-H522 lung
[10] = system: NCI/ADR-RES ovarian
[11] = system: SK-MEL-28 melanoma
[12] = system: UACC-62 melanoma
[13] = system: SK-MEL-5 melanoma
[14] = system: HS 578T breast
[15] = system: 786-0 renal
[16] = system: SN12C renal
[17] = system: U251 CNS
[18] = system: HT29 colon
[19] = system: K-562 leukemia
[20] = system: A498 renal
[21] = system: HCT-116 colon
[22] = system: COLO 205 colon
[23] = system: MDA-MB-231 breast
[24] = system: OVCAR-4 ovarian
[25] = system: SW-620 colon
[26] = system: PC-3 prostate
[27] = system: CCRF-CEM leukemia
[28] = system: OVCAR-3 ovarian
[29] = system: SK-MEL-2 melanoma
[30] = system: SF-295 CNS
[31] = system: UACC-257 melanoma
[32] = system: NCI-H23 lung
[33] = system: SF-539 CNS
[34] = system: SNB-19 CNS
[35] = system: SR leukemia
[36] = system: HOP-92 NSCLC
[37] = system: SF-268 CNS
[38] = system: EKVX NSCLC
[39] = system: T-47D breast
[40] = system: CAKI-1 renal
[41] = system: TK-10 renal
[42] = system: ACHN renal
[43] = system: IGROV1 ovarian
[44] = system: HCC-2998 colon
[45] = system: HCT-15 colon
[46] = system: OVCAR-8 ovarian
[47] = system: MDA-MB-435
[48] = system: MCF7 breast
[49] = system: SNB-75 CNS
[50] = system: NCI-H460 lung
[51] = system: BT-549 breast
[52] = system: NCI-H226 lung
[53] = system: RXF 393 renal
[54] = system: LOX IMVI melanoma
[55] = system: SK-OV-3 ovarian
[56] = system: HL-60(TB) leukemia
[57] = system: M14 melanoma
[58] = system: KM12 colon

Cn1c(NCC(CN2CCCC2)OC(=O)c2ccccc2)cc(=O)n(C)c1=O (centres undefined)
GI50 [1]: > 100 µM | TGI [1]: > 100 µM | GI50 [2]: > 100 µM | TGI [2]: > 100 µM | GI50 [3]: > 100 µM | TGI [3]: > 100 µM | GI50 [4]: 8.69 µM | TGI [4]: 40.8 µM | GI50 [5]: > 100 µM | TGI [5]: > 100 µM | GI50 [6]: > 100 µM | TGI [6]: > 100 µM | GI50 [7]: > 100 µM | TGI [7]: > 100 µM | GI50 [8]: > 100 µM | TGI [8]: > 100 µM | GI50 [9]: > 100 µM | TGI [9]: > 100 µM | GI50 [10]: > 100 µM | TGI [10]: > 100 µM | GI50 [11]: > 100 µM | TGI [11]: > 100 µM | GI50 [12]: > 100 µM | TGI [12]: > 100 µM | GI50 [13]: > 100 µM | TGI [13]: > 100 µM | GI50 [14]: > 100 µM | TGI [14]: > 100 µM | GI50 [15]: > 100 µM | TGI [15]: > 100 µM | GI50 [16]: > 100 µM | TGI [16]: > 100 µM | GI50 [17]: > 100 µM | TGI [17]: > 100 µM | GI50 [18]: > 100 µM | TGI [18]: > 100 µM | GI50 [19]: > 100 µM | TGI [19]: > 100 µM | GI50 [20]: > 100 µM | TGI [20]: > 100 µM | GI50 [21]: > 100 µM | TGI [21]: > 100 µM | GI50 [22]: > 100 µM | TGI [22]: > 100 µM | GI50 [23]: > 100 µM | TGI [23]: > 100 µM | GI50 [24]: > 100 µM | TGI [24]: > 100 µM | GI50 [25]: > 100 µM | TGI [25]: > 100 µM | GI50 [26]: > 100 µM | TGI [26]: > 100 µM | GI50 [27]: 0.0757 µM | TGI [27]: 4.06 µM | GI50 [28]: > 100 µM | TGI [28]: > 100 µM | GI50 [29]: > 100 µM | TGI [29]: > 100 µM | GI50 [30]: > 100 µM | TGI [30]: > 100 µM | GI50 [31]: > 100 µM | TGI [31]: > 100 µM | GI50 [32]: > 100 µM | TGI [32]: > 100 µM | GI50 [33]: > 100 µM | TGI [33]: > 100 µM | GI50 [34]: > 100 µM | TGI [34]: > 100 µM | GI50 [35]: > 100 µM | TGI [35]: > 100 µM | GI50 [36]: > 100 µM | TGI [36]: > 100 µM | GI50 [37]: > 100 µM | TGI [37]: > 100 µM | GI50 [38]: > 100 µM | TGI [38]: > 100 µM | GI50 [39]: > 100 µM | TGI [39]: > 100 µM | GI50 [40]: > 100 µM | TGI [40]: > 100 µM | GI50 [41]: > 100 µM | TGI [41]: > 100 µM | GI50 [42]: > 100 µM | TGI [42]: > 100 µM | GI50 [43]: > 100 µM | TGI [43]: > 100 µM | GI50 [44]: > 100 µM | TGI [44]: > 100 µM | GI50 [45]: > 100 µM | TGI [45]: > 100 µM | GI50 [46]: > 100 µM | TGI [46]: > 100 µM | GI50 [47]: > 100 µM | TGI [47]: > 100 µM | GI50 [48]: > 100 µM | TGI [48]: > 100 µM | GI50 [49]: > 100 µM | TGI [49]: > 100 µM | GI50 [50]: > 100 µM | TGI [50]: > 100 µM | GI50 [51]: > 100 µM | TGI [51]: > 100 µM | GI50 [52]: > 100 µM | TGI [52]: > 100 µM | GI50 [53]: > 100 µM | TGI [53]: > 100 µM | GI50 [54]: > 100 µM | TGI [54]: > 100 µM | GI50 [55]: > 100 µM | TGI [55]: > 100 µM

COc1cc2c3c(n(CCCN4CCCNCC4)c(=O)c2cc1OC)-c1cc2c(cc1C3=O)OCO2
GI50 [1]: 0.0384 µM | TGI [1]: 50 µM | GI50 [56]: 0.147 µM | TGI [56]: 0.976 µM | GI50 [2]: 0.166 µM | TGI [2]: 2.02 µM | GI50 [3]: 0.322 µM | TGI [3]: 6.95 µM | GI50 [4]: 2.47 µM | TGI [4]: 11.9 µM | GI50 [5]: 0.558 µM | TGI [5]: 4.46 µM | GI50 [6]: 0.571 µM | TGI [6]: 2.1 µM | GI50 [7]: 2.69 µM | TGI [7]: 9.69 µM | GI50 [8]: 1.33 µM | TGI [8]: 12.9 µM | GI50 [9]: 1.87 µM | TGI [9]: 24.8 µM | GI50 [10]: 0.493 µM | TGI [10]: 6.69 µM | GI50 [11]: 2.49 µM | TGI [11]: 14.1 µM | GI50 [12]: 0.515 µM | TGI [12]: 6.04 µM | GI50 [13]: 1.34 µM | TGI [13]: 8.21 µM | GI50 [14]: 2.09 µM | TGI [14]: 14.2 µM | GI50 [15]: 0.268 µM | TGI [15]: 1.14 µM | GI50 [16]: 0.239 µM | TGI [16]: 1.28 µM | GI50 [17]: 0.181 µM | TGI [17]: 2.91 µM | GI50 [18]: 1.15 µM | TGI [18]: 17.6 µM | GI50 [19]: 0.476 µM | TGI [19]: 18.5 µM | GI50 [20]: 1.16 µM | TGI [20]: 13.5 µM | GI50 [21]: 0.282 µM | TGI [21]: 2.3 µM | GI50 [22]: 2.21 µM | TGI [22]: 10.8 µM | GI50 [23]: 1.06 µM | TGI [23]: 3.5 µM | GI50 [24]: 2.91 µM | TGI [24]: 11.1 µM | GI50 [25]: 0.267 µM | TGI [25]: 12 µM | GI50 [26]: 1.33 µM | TGI [26]: 9.97 µM | GI50 [27]: 0.0721 µM | TGI [27]: 8.06 µM | GI50 [28]: 2.52 µM | TGI [28]: 7.66 µM | GI50 [29]: 3.7 µM | TGI [29]: 17.6 µM | GI50 [30]: 0.2 µM | TGI [30]: 2.66 µM | GI50 [31]: 5.85 µM | TGI [31]: 15.9 µM | GI50 [32]: 0.346 µM | TGI [32]: 2.57 µM | GI50 [33]: 0.29 µM | TGI [33]: 1.37 µM | GI50 [34]: 1.26 µM | TGI [34]: 9.62 µM | GI50 [57]: 0.521 µM | TGI [57]: 7.12 µM | GI50 [36]: 0.135 µM | TGI [36]: 0.471 µM | GI50 [37]: 0.758 µM | TGI [37]: 11.2 µM | GI50 [38]: 7.6 µM | TGI [38]: 15.5 µM | GI50 [39]: 0.984 µM | TGI [39]: 7.98 µM | GI50 [40]: 0.12 µM | TGI [40]: 1.65 µM | GI50 [41]: 1.35 µM | TGI [41]: 7.54 µM | GI50 [42]: 0.193 µM | TGI [42]: 0.751 µM | GI50 [43]: 1.15 µM | TGI [43]: 21.5 µM | GI50 [58]: 1.21 µM | TGI [58]: 5.06 µM | GI50 [44]: 3.07 µM | TGI [44]: 9.45 µM | GI50 [45]: 1.09 µM | TGI [45]: 6.74 µM | GI50 [46]: 0.466 µM | TGI [46]: 4.22 µM | GI50 [47]: 2.58 µM | TGI [47]: 13.7 µM | GI50 [48]: 0.138 µM | TGI [48]: 6.29 µM | GI50 [49]: 0.754 µM | TGI [49]: 7.66 µM | GI50 [50]: 0.0545 µM | TGI [50]: 6.47 µM | GI50 [51]: 2.2 µM | TGI [51]: 11.5 µM | GI50 [52]: 0.303 µM | TGI [52]: 3.03 µM | GI50 [53]: 2.53 µM | TGI [53]: 11.5 µM | GI50 [54]: 0.165 µM | TGI [54]: 0.886 µM | GI50 [55]: 4 µM | TGI [55]: 15.5 µM
